Test [1] concerns p21. Kind of test: p21 levels by immunoblotting in ACHN and/or 786-O cells. Also: key: + denotes inhibition of p21 secretion or the absence of p21; − denotes the presence of p21. In kind it is cell-based, human. The note with it: 24 h of culture with compound, immunoblot. As to the method:
Cells harvested after growth to confluence in 10% serum-containing media and treatment with compounds of the invention were washed with phosphate buffered saline (PBS) and lysed in lysis buffer composed of 50 mM HEPES, 1% Triton X-100, 10 mM sodium pyrophosphate, 100 mM sodium fluoride and 4 mM EDTA at 4° C. Cell lysates were pelleted. Supernatants were electrophoresed and immunoblotted. Membranes were blocked in 5% nonfat dry milk for 30 min at room temperature and probed with p21 antibody. Membranes were then probed with horseradish peroxidase tagged anti-mouse or anti-rabbit IgG antibodies (diluted 3:20,000 and 3:10,000 in 5% nonfat dry milk, respectively) for 2 h at room temperature. Signal was detected using enhanced chemiluminescence (ECL) solutions.
On the technique in general: In western blotting, separated proteins are transferred to a membrane and probed.

In test [2] the target is T1, Raf-1 (Homo sapiens, UniProt P04049).
T1 construct: Full length recombinant Raf-I and b-Raf (V600E) kinases; purchased US Biological (Swampscott, Mass.)
Nature of the test: Recombinant Raf kinase inhibition (ADP-Glo Kinase Assay), Raf-1. In kind it is biochemical. The note with it: 10 nM Raf kinase, 1 μM MEK-1, 10 μM ATP, 22° C., 1 hour. The method, then: (§1) All assays were performed using 10 nM Raf kinase, 1 μM MEK-1, 10 μM ATP, at 22° C. for 1 hour. Inhibitors were dissolved in DMSO and IC50 values were obtained by measuring the change in the ADP production (luminescent signal intensity) at various inhibitor concentrations as compared to the control. Individual data sets were performed in duplicate and each IC50 value was determined from three separate experiments. The data were fit to a saturation curve using KaleidaGraph graphing program (Synergy Software) to determine the IC50 values.
In general terms: ADP-Glo turns the ADP formed in a reaction into a luminescent signal.

Test [3] addresses T2, human sEH (Homo sapiens, UniProt P34913).
T2 sequence (P34913 1-555): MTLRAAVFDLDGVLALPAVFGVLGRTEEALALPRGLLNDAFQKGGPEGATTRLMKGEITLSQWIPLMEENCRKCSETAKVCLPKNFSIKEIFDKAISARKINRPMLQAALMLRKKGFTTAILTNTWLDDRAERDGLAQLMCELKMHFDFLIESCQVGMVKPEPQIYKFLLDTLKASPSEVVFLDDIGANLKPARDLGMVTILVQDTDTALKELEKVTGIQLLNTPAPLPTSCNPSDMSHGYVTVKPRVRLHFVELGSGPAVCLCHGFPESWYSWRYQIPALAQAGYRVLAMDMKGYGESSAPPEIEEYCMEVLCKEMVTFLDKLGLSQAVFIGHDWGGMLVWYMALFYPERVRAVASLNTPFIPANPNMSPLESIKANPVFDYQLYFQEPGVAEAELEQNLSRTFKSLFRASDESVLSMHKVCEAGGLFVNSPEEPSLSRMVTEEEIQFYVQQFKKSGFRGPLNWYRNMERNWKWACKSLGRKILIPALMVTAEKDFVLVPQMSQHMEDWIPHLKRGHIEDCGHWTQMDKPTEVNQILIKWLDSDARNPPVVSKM
Kind of test: Inhibitory activity against human sEH. Type of test: biochemical. The note with it: read-out: % Inhibition (IC50) Human sEH.

Test [4] addresses T3, b-Raf (V600E) (Homo sapiens, UniProt P15056, V600E).
T3 construct: Full length recombinant Raf-I and b-Raf (V600E) kinases; purchased US Biological (Swampscott, Mass.)
Nature of the test: Recombinant Raf kinase inhibition (ADP-Glo Kinase Assay), b-Raf (V600E). The note with it: 10 nM Raf kinase, 1 μM MEK-1, 10 μM ATP, 22° C., 1 hour. In kind it is biochemical. As to the method:
as §1

Test [5] relates to p21. Nature of the test: Immunoblotting of p21 and other proteins in normal kidney and cancer cells (FIG. 2). As to conditions: HK2, 786-O, Caki-1, ACHN and Hey cells, 24 h, immunoblot. Type of test: cell-based, human. The method, then:
FIG. 2. […] The cells were harvested and immunoblotted with the antibodies indicated. (A) p21 and (B) p-Akt, p-ERK, t-Akt, t-ERK and p53 proteins are shown. β-actin is a loading control for each membrane. The experiment shown is representative of at least 3 separate experiments.
(§2) Immunoblotting was performed as previously described.^19 Briefly, after appropriate treatments, the cells were washed with phosphate buffered saline (PBS) and lysed in lysis buffer. Cell lysates were immunoblotted. Membranes were blocked in 5% nonfat dry milk for one hour at room temperature and probed with appropriate antibodies. Membranes were then probed with horseradish peroxidase tagged anti-mouse or anti-rabbit IgG antibodies. Signal was detected using ECL solutions.

In test [6] the test system is p21 mRNA. Kind of test: Reverse transcriptase-PCR of p21 mRNA in 786-O cells (FIG. 3A). Type of test: cell-based, human. The note with it: 10 μM, RT-PCR. As to the method:
(§3) FIG. 3. […] 786-O cells were grown to confluence in 10% serum containing media and: (A) treated with Compound 2288 at 10 μM concentration or vehicle (DMSO) for the indicated time. mRNA was isolated and RT-PCR was performed as described in Materials and Methods. GAP DH is a loading control. (B) exposed to CHX (35 μM), Compound 2288 (10 μM). CHX (10 μg/ml) and Compound 2288 (10 μM), or vehicle (DMSO) for the indicated times and immunoblotting was performed with the antibodies indicated. β-actin is a loading control. The experiments shown are representative of at least 3 separate experiments.
Total mRNA was collected and cDNA synthesized using a Qiagen RNeasykit (Valencia, Calif.) following manufacture's protocol. The PCR primers used are 5′-[…]-3′ (p21 sense), 5′-[…]-3′ (p21 antisense), 5′-[…]-3′ (GAPDH sense), and 5′-[…]-3′ (GAPDH antisense). Reverse-transcribed cDNA was subjected to 40 cycles. Thermal cycling conditions are as follows: denaturation for 30 seconds at 94° C. annealing for 30 seconds at 56.5° C. and elongation for 1 minute at 72° C. DNA was analyzed by 2% ethidium bromide agarose gel electrophoresis.

For test [7], the system named is p21. Kind of test: p21 protein stability with CHX, immunoblotting in 786-O cells (FIG. 3B). In kind it is cell-based, human. The note with it: 10 μM with CHX. The method, then: as §3, §2
Test [8] relates to NCI60 cell lines. Nature of the test: Cell viability TCA assay in NCI60 cell lines (FIG. 4). Type of test: cell-based, human. The note with it: 48 h. As to the method: FIGS. 4A, 4B & 4C. […] TCA assay was conducted in the NCI60 cell lines treated with Compound 2288 as described in the Materials and Methods. Compound 2288 inhibited various cancer cell growth.
TCA assay was conducted by NCI Developmental Therapeutics Program. Briefly, cells were plated in 96-well plates, and after appropriate treatments, the plates are incubated for an additional 48 h at 37° C., 5% CO2. 95% air, and 100% relative humidity. The assay was terminated by the addition of cold TCA. Cells were fixed by the addition of 50 μl of cold 50% (w/v) TCA (final concentration, 10% TCA) and incubated for 60 minutes at 4° C. The plates were washed water and air dried. Sulforhodamine B (SRB) solution (100 μl) at 0.4% (w/v) in 1% acetic acid was added to each well, and plates were incubated for 10 minutes at room temperature. After staining, the plates were washed with 1% acetic acid and air dried. Bound stain was subsequently solubilized with 10 mM trizma base, and the absorbance was read on an automated plate reader at a wavelength of 515 nm.

In test [9] the test system is p21. Nature of the test: Immunofluorescence staining of p21 in 786-O cells (FIG. 5). In kind it is cell-based, human. The note with it: 10 μM, 24 h, confocal microscopy. The method, then:
FIG. 5. […] 786-O cells were grown to confluence on 8-well chamber slides and treated with either Compound 2288 at 10 μM concentration or vehicle (DMSO) for 24 h. Immunofluorescence staining of p21 was visualized by confocal microscopy as described in Materials and Methods. p21 is green and the nuclear dye (DAPI) is blue. The experiment shown is representative of at least 3 separate experiments.
After appropriate treatments in 8 well chamber slides. immunofluorescence was conducted as described previously.^19 Briefly, the cells were fixed in 2% paraformaldehyde and blocked in the blocking buffer. After blocking, the cells were incubated with appropriate antibody, incubated with anti-mouse or anti-rabbit IgG (H+L), F(ab′)2 Fragment (Alexa Fluor® 488 Conjugate), and coverslipped with vectashield with DAPI. The specimens were examined by confocal microscopy.

The test system of test [10] is p21. The note with it: Inoue et al. (2011) Cancer Biol. Ther.; cited from earlier work.

T3 sequence (P15056 whole entry V600E): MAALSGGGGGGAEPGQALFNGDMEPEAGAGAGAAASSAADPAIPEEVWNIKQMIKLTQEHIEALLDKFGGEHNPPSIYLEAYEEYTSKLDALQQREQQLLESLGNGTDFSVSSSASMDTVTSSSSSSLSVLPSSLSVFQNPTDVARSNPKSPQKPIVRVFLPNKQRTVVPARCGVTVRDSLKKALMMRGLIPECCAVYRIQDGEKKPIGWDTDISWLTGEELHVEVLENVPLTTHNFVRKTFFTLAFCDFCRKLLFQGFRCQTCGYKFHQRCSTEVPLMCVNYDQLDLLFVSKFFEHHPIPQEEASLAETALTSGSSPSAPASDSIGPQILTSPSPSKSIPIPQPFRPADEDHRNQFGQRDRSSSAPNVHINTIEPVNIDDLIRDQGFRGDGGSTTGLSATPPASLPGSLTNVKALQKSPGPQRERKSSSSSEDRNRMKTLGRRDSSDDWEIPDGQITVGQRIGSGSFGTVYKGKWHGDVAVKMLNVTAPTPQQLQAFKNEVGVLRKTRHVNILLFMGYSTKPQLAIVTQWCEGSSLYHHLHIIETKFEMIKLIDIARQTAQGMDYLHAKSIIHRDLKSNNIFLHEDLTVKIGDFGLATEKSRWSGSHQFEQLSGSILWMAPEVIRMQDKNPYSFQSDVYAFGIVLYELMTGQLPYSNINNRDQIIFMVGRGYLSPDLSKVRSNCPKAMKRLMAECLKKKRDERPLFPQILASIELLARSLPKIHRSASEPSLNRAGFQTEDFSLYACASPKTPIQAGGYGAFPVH

Take `CCC(=O)N1CCC(NC(=O)NC23CC4CC(CC(C4)C2)C3)CC1` [Compound 1163]: in test [1], the p21 inhibition entry was “−”. Same read-out and setting: under `O=C(NC12CC3CC(CC(C3)C1)C2)N[C@H]1CC[C@H](Oc2ccc(C(=O)O)cc2)CC1` [Compound 1471] stands “−”. The same measure, in the same setting: the result for `CS(=O)(=O)N1CCC(NC(=O)Nc2ccc(OC(F)(F)F)cc2)CC1` [Compound 1709] reads “−”.

As for `O=C(Nc1ccc(OC(F)(F)F)cc1)N[C@H]1CC[C@H](Oc2ccc(C(=O)O)cc2)CC1` [Compound 1728], the p21 inhibition result in test [1] was “−”. Same read-out and setting: under `CCC(=O)N1CCC(NC(=O)Nc2ccc(OC(F)(F)F)cc2)CC1` [Compound 1770] stands “−”; under `N#Cc1ccc(O[C@H]2CC[C@H](NC(=O)Nc3ccc(Cl)c(C(F)(F)F)c3)CC2)cc1` [Compound 2182], “+”. The term IC50 denotes the concentration that inhibits the measured activity by half. In the case of `O=C(Nc1ccc(Cl)c(C(F)(F)F)c1)N[C@H]1CC[C@H](Oc2ccc(C(=O)O)cc2)CC1` [Compound 2221], in [2], the half-maximal inhibitory concentration (IC50) is 4300 ± 400 nM. The p21 inhibition entry in test [1] was “−”.

Consider `CNC(=O)c1ccc(O[C@H]2CC[C@H](NC(=O)NC34CC5CC(CC(C5)C3)C4)CC2)cc1` [Compound 2225], for which the p21 inhibition result in test [1] is given as “−”. The same measure, in the same setting: the result for `CNC(=O)c1ccc(O[C@H]2CC[C@H](NC(=O)Nc3ccc(OC(F)(F)F)cc3)CC2)cc1` [Compound 2227] reads “−”. Consider `CNC(=O)c1ccc(O[C@H]2CC[C@H](NC(=O)Nc3ccc(Cl)c(C(F)(F)F)c3)CC2)cc1` [Compound 2253], for which the IC50 in [3] is 0.5 nM; in test [2] it was 340 ± 40 nM; in [4] it was above 10000 nM. Further, the p21 inhibition entry in test [1] is listed as “−”. In the case of `CNC(=O)c1cc(O[C@H]2CC[C@H](NC(=O)Nc3ccc(Cl)c(C(F)(F)F)c3)CC2)ccn1` [Compound 2278], in test [1], the p21 inhibition entry was “+”. As to `O=C(Nc1ccc(Cl)c(C(F)(F)F)c1)N[C@H]1CC[C@H](Oc2ccc(C(F)(F)F)cn2)CC1` [Compound 2288], the IC50 in test [3] amounted to 0.5 nM. The p21 inhibition entry in [1] is “+”. In [5], the “levels of other proteins (p-Akt, p-ERK, t-Akt, t-ERK, p53)” value is listed as “not levels of other proteins” and the p21 protein level entry is “consistently decreases p21 protein level”. Besides, in test [6], the “p21 mRNA expression” value is listed as “decreases p21 mRNA expression”. For the same compound, in test [7], the p21 protein stability result is “no effect on p21 protein stability”. Besides, in test [8], the cancer cell growth result is listed as “inhibits cancer cell growth”. The “cytosolic p21” value in test [9] was “decreases cytosolic p21”. For the compound `CNC(=O)c1ccc(OC2CCC(NC(=O)Nc3ccc(Cl)c(C(F)(F)F)c3)CC2)cn1` (stereo not shown) [Compound 2316], the IC50 in test [3] was found to be 0.5 nM; in test [2], 175 ± 20 nM; in test [4] it was 200 ± 150 nM. In [1], the p21 inhibition result is “+”. Consider `CNC(=O)c1cc(O[C@H]2CC[C@@H](NC(=O)Nc3ccc(Cl)c(C(F)(F)F)c3)CC2)ccn1` [Compound 2319], for which, in [3], the IC50 was determined as 0.5 nM. Besides, the p21 inhibition entry in test [1] is “+”. As to `CCN(CC)C(=O)c1cc(O[C@H]2CC[C@H](NC(=O)Nc3ccc(Cl)c(C(F)(F)F)c3)CC2)ccn1` [Compound 2574], the p21 inhibition result in test [1] is reported as “+”. The same measure, in the same setting: under `CNC(=O)c1cc(O[C@H]2CC[C@H](NC(=O)Nc3ccc(OC(F)(F)F)cc3)CC2)ccn1` [Compound 2575] stands “−”. Take `CNC(=O)c1cc(Oc2ccc(NC(=O)Nc3ccc(OC(F)(F)F)cc3)cc2)ccn1` [Compound 2576]: the IC50 came out at 0.5 nM in [3] and 30 nM in [2]. For the same compound, the p21 inhibition result in [1] was “+”. Consider `CCN(CC)C(=O)c1cc(O[C@H]2CC[C@H](NC(=O)Nc3ccc(OC(F)(F)F)cc3)CC2)ccn1` [Compound 2577], for which the p21 inhibition entry in test [1] is “+”.

As to `O=C(Nc1ccc(OC(F)(F)F)cc1)N[C@H]1CC[C@H](Oc2ccnc(C(=O)N3CCCC3)c2)CC1` [Compound 2578], the p21 inhibition result in test [1] is “−”. The same measure, in the same setting: under `N#Cc1ccc(O[C@H]2CC[C@H](NC(=O)Nc3ccc(C(F)(F)F)cc3)CC2)cc1` [Compound 2579] stands “+”; under `N#Cc1ccc(O[C@H]2CC[C@H](NC(=O)Nc3ccc(OC(F)(F)F)cc3)CC2)cc1` [Compound 2581], “+”. On to `CNC(=O)c1cc(Oc2ccc(NC(=O)Nc3ccc(Cl)c(C(F)(F)F)c3)cc2)ccn1` [Sorafenib, reference compound], for which the p21 inhibition entry in test [1] is reported as “+”. Also, in test [10], the “p21 inhibition (reported)” value was “potent and stable p21 inhibitor”.

(Values after patent publication US10449182B2 (The Regents of the University of California, priority 2012, dated 2019).)
